Measured values reported in ChEMBL document CHEMBL1151694, “Efficient synthesis and biological evaluation of two modafinil analogues” (2008).
Calls of active or inactive are those of the source. No cut-off for these calls is given here.

Legend:
Cortex [1] = test: Effect on spontaneous [3H]5HT […] in Sprague-Dawley rat brain cortical slices at 0.1 to 30 uM measured after 45 mins of superfusion; type: functional, tissue-based
Cortex [2] = test: Effect on electrically-evoked [3H]5HT […] in Sprague-Dawley rat brain cortical slices administered 15 mins before electrical challenge after 85 mins of superfusion relative to control; type: functional, tissue-based
Cortex [3] = test: Effect on spontaneous [3H]5HT […] in Sprague-Dawley rat brain cortical slices at 1 to 30 uM measured after 45 mins of superfusion; type: functional, tissue-based
Cortex [4] = test: Effect on electrically-evoked [3H]5HT […] in Sprague-Dawley rat brain cortical slices administered 15 mins before electrical challenge at 30 uM after 85 mins of superfusion relative to control; type: functional
Cortex [5] = test: Effect on spontaneous [3H]5HT […] in Sprague-Dawley rat brain cortical slices at 0.1 to 100 uM measured after 45 mins of superfusion; type: functional, tissue-based
Cortex [6] = test: Effect on electrically-evoked [3H]5HT […] in Sprague-Dawley rat brain cortical slices administered 15 mins before electrical challenge at 100 uM after 85 mins of superfusion relative to control; type: functional, tissue-based

CC(C)NC(=O)CC(=O)C(c1ccccc1)c1ccccc1
Activity (Cortex [1]): inactive | Activity (Cortex [2]): Dose-dependent effect

NC(=O)C[S+]([O-])C(c1ccccc1)c1ccccc1 (configuration not stated) [MODAFINIL]
Activity (Cortex [3]): inactive | Activity (Cortex [4]): 217% | Activity (Cortex [2]): Dose-dependent effect

NC(=O)CC(=O)C(c1ccccc1)c1ccccc1
Activity (Cortex [5]): inactive | Activity (Cortex [6]): Active
